Results reported in PMC8003627, “Synthesis and Biological Evaluation of 2,3,4-Triaryl-1,2,4-oxadiazol-5-ones as p38 MAPK Inhibitors” (Molecules, 2021).

biological target: p38α MAP kinase (Homo sapiens, UniProt Q16539); test: p38α MAP kinase inhibition assay (non radioactive immunosorbent enzyme assay, ATF-2 phosphorylation; Ultra Glo Promega kit); type: biochemical; conditions: mean of four separated experiments; compounds assayed at 10^−4 to 10^−8 M
Sequence (Q16539 whole entry): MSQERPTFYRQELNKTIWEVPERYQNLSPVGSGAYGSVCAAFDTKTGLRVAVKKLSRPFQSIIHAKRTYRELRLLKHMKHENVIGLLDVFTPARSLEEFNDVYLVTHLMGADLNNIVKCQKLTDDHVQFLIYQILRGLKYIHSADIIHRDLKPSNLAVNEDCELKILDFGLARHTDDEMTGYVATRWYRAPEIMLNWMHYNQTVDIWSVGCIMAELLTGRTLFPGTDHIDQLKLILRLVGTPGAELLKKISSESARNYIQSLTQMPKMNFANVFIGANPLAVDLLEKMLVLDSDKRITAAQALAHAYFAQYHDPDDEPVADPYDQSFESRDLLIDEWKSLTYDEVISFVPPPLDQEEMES

Row | SMILES | IC50 [µM]
1 | O=C1ON(c2ccccc2)C(c2ccncc2)N1c1ccc(C(F)(F)F)cc1 (centres unmarked) [Compound 3c, 2-Phenyl-4-(4-trifluoromethyl)-3-(pyridin-4-yl)-1,2,4-oxadiazolidin-5-one] | 2
2 | O=C1ON(c2ccccc2)C(c2ccncc2)N1c1ccc(Cl)cc1 (centres unmarked) [Compound 3d, 2-Phenyl-4-(4-chlorophenyl)-3-(pyridin-4-yl)-1,2,4-oxadiazolidin-5-one] | 1.5
3 | O=C1ON(Cc2ccccc2)C(c2ccncc2)N1c1ccc(F)cc1 (centres unmarked) [Compound 3e, 2-Benzyl-4-(4-fluorophenyl)-3-(pyridin-4-yl)-1,2,4-oxadiazolidin-5-one] | 0.08
4 | O=C1ON(Cc2ccccc2)C(c2ccncc2)N1c1ccc([N+](=O)[O-])cc1 (centres unmarked) [Compound 3f, 2-Benzyl-4-(4-nitrophenyl)-3-(pyridin-4-yl)-1,2,4-oxadiazolidin-5-one] | 0.15
5 | O=C1ON(Cc2ccccc2)C(c2ccccc2)N1c1ccc(F)cc1 (centres unmarked) [Compound 3g, 2-Benzyl-4-(4-fluorophenyl)-3-phenyl-1,2,4-oxadiazolidin-5-one] | 15.1

Now from value to compound:

Row | IC50 [µM] | SMILES
6 | 60.5 | O=C1ON(Cc2ccccc2)C(c2ccccc2)N1c1ccc([N+](=O)[O-])cc1 (centres unmarked) [Compound 3h, 2-Benzyl-4-(4-nitrophenyl)-3-phenyl-1,2,4-oxadiazolidin-5-one]
7 | 18.5 | CC1N(Cc2ccccc2)OC(=O)N1c1ccc(F)cc1 (centres unmarked) [Compound 3i, 2-Benzyl-4-(4-fluorophenyl)-3-methyl-1,2,4-oxadiazolidin-5-one]
8 | 22.8 | CC1N(c2ccccc2)OC(=O)N1c1ccc(F)cc1 (centres unmarked) [Compound 3l, 2-Phenyl-4-(4-fluorophenyl)-3-methyl-1,2,4-oxadiazolidin-5-one]
